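Following 48 hours of exposure in 96-well plates, responses at five concentrations were used to interpolate endpoints linearly. GI50 = concentration required for 50% inhibition of growth. At the TGI there is no net growth.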
How the values were obtained:
Assay in all cases: inhibition of tumour cell growth, NCI panel, 48 h
K-562 leukemia = tested on: K-562 leukemia
HS 578T breast = tested on: HS 578T breast
OVCAR-5 ovarian = tested on: OVCAR-5 ovarian
MDA-MB-435 = tested on: MDA-MB-435
SK-MEL-2 melanoma = tested on: SK-MEL-2 melanoma
COLO 205 colon = tested on: COLO 205 colon
UACC-257 melanoma = tested on: UACC-257 melanoma
NCI-H522 lung = tested on: NCI-H522 lung
SR leukemia = tested on: SR leukemia
NCI/ADR-RES ovarian = tested on: NCI/ADR-RES ovarian
HCC-2998 colon = tested on: HCC-2998 colon
SF-268 CNS = tested on: SF-268 CNS
PC-3 prostate = tested on: PC-3 prostate
NCI-H23 lung = tested on: NCI-H23 lung
KM12 colon = tested on: KM12 colon
MOLT-4 leukemia = tested on: MOLT-4 leukemia
SK-MEL-28 melanoma = tested on: SK-MEL-28 melanoma
SN12C renal = tested on: SN12C renal
TK-10 renal = tested on: TK-10 renal
HOP-62 NSCLC = tested on: HOP-62 NSCLC
HOP-92 NSCLC = tested on: HOP-92 NSCLC
RXF 393 renal = tested on: RXF 393 renal
U251 CNS = tested on: U251 CNS
MCF7 breast = tested on: MCF7 breast
T-47D breast = tested on: T-47D breast
NCI-H460 lung = tested on: NCI-H460 lung
OVCAR-8 ovarian = tested on: OVCAR-8 ovarian
ACHN renal = tested on: ACHN renal
SK-OV-3 ovarian = tested on: SK-OV-3 ovarian
HCT-15 colon = tested on: HCT-15 colon
HT29 colon = tested on: HT29 colon
CCRF-CEM leukemia = tested on: CCRF-CEM leukemia
CAKI-1 renal = tested on: CAKI-1 renal
SNB-75 CNS = tested on: SNB-75 CNS
SF-539 CNS = tested on: SF-539 CNS
A549 NSCLC = tested on: A549 NSCLC
NCI-H226 lung = tested on: NCI-H226 lung
MALME-3M melanoma = tested on: MALME-3M melanoma
M14 melanoma = tested on: M14 melanoma
786-0 renal = tested on: 786-0 renal
MDA-MB-231 breast = tested on: MDA-MB-231 breast
SNB-19 CNS = tested on: SNB-19 CNS
UO-31 renal = tested on: UO-31 renal
HL-60(TB) leukemia = tested on: HL-60(TB) leukemia
HCT-116 colon = tested on: HCT-116 colon
SK-MEL-5 melanoma = tested on: SK-MEL-5 melanoma
UACC-62 melanoma = tested on: UACC-62 melanoma

CC1(C)C2CCC13C(=O)C1OC3(C2)C2C(=O)c3cc4ccccc4cc3C(=O)C12 (configuration not stated)
GI50 (K-562 leukemia): 4.92 µM
TGI (K-562 leukemia): 33.7 µM
GI50 (HS 578T breast): 53.7 µM
TGI (HS 578T breast): > 100 µM
GI50 (OVCAR-5 ovarian): 18.4 µM
TGI (OVCAR-5 ovarian): > 100000 nM
GI50 (MDA-MB-435): 8.58 µM
TGI (MDA-MB-435): > 100 µM
GI50 (SK-MEL-2 melanoma): 42.2 µM
TGI (SK-MEL-2 melanoma): > 100 µM
GI50 (COLO 205 colon): 14.7 µM
TGI (COLO 205 colon): > 100 µM
GI50 (UACC-257 melanoma): 20.8 µM
TGI (UACC-257 melanoma): 64.8 µM
GI50 (NCI-H522 lung): 23.1 µM
TGI (NCI-H522 lung): > 100 µM
GI50 (SR leukemia): 1830 nM
TGI (SR leukemia): 7.04 µM
GI50 (NCI/ADR-RES ovarian): 2.71 µM
TGI (NCI/ADR-RES ovarian): 15.9 µM
GI50 (HCC-2998 colon): 8.53 µM
TGI (HCC-2998 colon): > 100 µM
GI50 (SF-268 CNS): 5.29 µM
TGI (SF-268 CNS): 82.4 µM
GI50 (PC-3 prostate): 3.85 µM
TGI (PC-3 prostate): 27.8 µM
GI50 (NCI-H23 lung): 4.75 µM
TGI (NCI-H23 lung): 32.6 µM
GI50 (KM12 colon): 3.79 µM
TGI (KM12 colon): 25.1 µM
GI50 (MOLT-4 leukemia): 1760 nM
TGI (MOLT-4 leukemia): 19.2 µM
GI50 (SK-MEL-28 melanoma): 8.36 µM
TGI (SK-MEL-28 melanoma): > 100 µM
GI50 (SN12C renal): 19.3 µM
TGI (SN12C renal): > 100 µM
GI50 (TK-10 renal): 12.9 µM
TGI (TK-10 renal): 44.5 µM
GI50 (HOP-62 NSCLC): 7.64 µM
TGI (HOP-62 NSCLC): 45.3 µM
GI50 (HOP-92 NSCLC): 4.19 µM
TGI (HOP-92 NSCLC): 27.5 µM
GI50 (RXF 393 renal): 8.4 µM
TGI (RXF 393 renal): 46.2 µM
GI50 (U251 CNS): 15.1 µM
TGI (U251 CNS): 34.4 µM
GI50 (MCF7 breast): 6.17 µM
TGI (MCF7 breast): > 100 µM
GI50 (T-47D breast): 4.68 µM
TGI (T-47D breast): 50.5 µM
GI50 (NCI-H460 lung): 5.48 µM
TGI (NCI-H460 lung): > 100 µM
GI50 (OVCAR-8 ovarian): 33.8 µM
TGI (OVCAR-8 ovarian): > 100 µM
GI50 (ACHN renal): 10.4 µM
TGI (ACHN renal): 26.3 µM
GI50 (SK-OV-3 ovarian): 12.2 µM
TGI (SK-OV-3 ovarian): 67.4 µM
GI50 (HCT-15 colon): 9.28 µM
TGI (HCT-15 colon): 68.8 µM
GI50 (HT29 colon): 11.3 µM
TGI (HT29 colon): > 100 µM
GI50 (CCRF-CEM leukemia): 3.42 µM
TGI (CCRF-CEM leukemia): 25.7 µM
GI50 (CAKI-1 renal): 1290 nM
TGI (CAKI-1 renal): 5.33 µM
GI50 (SNB-75 CNS): 54.5 µM
TGI (SNB-75 CNS): > 100 µM
GI50 (SF-539 CNS): 40.1 µM
TGI (SF-539 CNS): 72 µM
GI50 (A549 NSCLC): 26.2 µM
TGI (A549 NSCLC): 76.3 µM
GI50 (NCI-H226 lung): 24.9 µM
TGI (NCI-H226 lung): 95.2 µM
GI50 (MALME-3M melanoma): 7.3 µM
TGI (MALME-3M melanoma): 43.8 µM
GI50 (M14 melanoma): 10.7 µM
TGI (M14 melanoma): > 100 µM
GI50 (786-0 renal): 6 µM
TGI (786-0 renal): 36.6 µM
GI50 (MDA-MB-231 breast): 22.1 µM
TGI (MDA-MB-231 breast): 49.4 µM
GI50 (SNB-19 CNS): 5.57 µM
TGI (SNB-19 CNS): 46.4 µM
GI50 (UO-31 renal): 19.6 µM
TGI (UO-31 renal): > 100 µM
GI50 (HL-60(TB) leukemia): 4.89 µM
TGI (HL-60(TB) leukemia): 26.7 µM
GI50 (HCT-116 colon): 12 µM
TGI (HCT-116 colon): > 100 µM

Cc1cc2c(cc1C)[n+](Cc1ccc3ccccc3c1)cn2Cc1ccc2ccccc2c1
GI50 (OVCAR-5 ovarian): 1.13 µM
TGI (OVCAR-5 ovarian): 2430 nM
GI50 (NCI/ADR-RES ovarian): 6.6 µM
TGI (NCI/ADR-RES ovarian): 64.4 µM
GI50 (ACHN renal): 1.65 µM
TGI (ACHN renal): 3.08 µM
GI50 (SK-OV-3 ovarian): 1.5 µM
TGI (SK-OV-3 ovarian): 2.9 µM
GI50 (SK-MEL-5 melanoma): 1050 nM
TGI (SK-MEL-5 melanoma): 2230 nM
GI50 (UACC-62 melanoma): 459 nM
TGI (UACC-62 melanoma): 1790 nM
